Measured values from US12624024B2, “EP2 antagonist compounds” (Reservoir Neuroscience, Inc., priority 2021, dated 2026).

What was measured:
EP2 receptor = target: T1, EP2 receptor (Homo sapiens, UniProt P43116); test: EP2 Potency Assay (cAMP TR-FRET, CHO-K1 cells transfected with EP2 receptor, PGE2 at EC80); assay type: cell-based; settings: CHO-K1 cells expressing EP2, prostaglandin E2 at EC80, read-out: EP2 Potency (IC50 category)
T1 construct: expressed in transfected cells; host or cells: CHO-K1 cells (ATCC), transient transfection with FuGENE 6
T1 sequence (P43116 whole entry): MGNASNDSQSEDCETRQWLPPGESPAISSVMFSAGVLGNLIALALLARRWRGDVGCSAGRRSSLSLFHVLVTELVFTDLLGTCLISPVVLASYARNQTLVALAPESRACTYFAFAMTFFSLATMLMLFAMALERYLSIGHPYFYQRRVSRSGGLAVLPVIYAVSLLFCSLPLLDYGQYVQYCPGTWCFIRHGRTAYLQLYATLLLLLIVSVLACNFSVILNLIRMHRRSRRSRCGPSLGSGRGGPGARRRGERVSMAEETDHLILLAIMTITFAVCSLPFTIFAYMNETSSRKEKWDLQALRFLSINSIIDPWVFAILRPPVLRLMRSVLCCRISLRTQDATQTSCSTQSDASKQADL
How it was run: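 CHO-K1 cells transiently transfected with EP2 and seeded 24 h after transfection. IC50 from curve fit of percent inhibition versus concentration.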

[1] = Human Liver Microsome Stability; assay type: in vitro ADME; settings: human liver microsomes 0.5 mg/mL, 37° C., 60 min; for half-life at 2 μM: read-out: T1/2 (microsomal); for microsomal CLint at 2 μM: read-out: in vitro CLint (microsomal)
Experimental: The tested compound was incubated in duplicate with human liver microsomes (0.5 mg/mL) at 37° C. These incubations were carried out at a final test article concentration of 2 μM over a total incubation period of 60 minutes. Samples were taken at 0, 15, 30, 45 and 60 min and the reaction terminated by addition of 4 volumes of acetonitrile containing internal standard (100 nM alprazolam, 200 nM imipramine, 200 nM labetalol and 2 μM ketoprofen). Diclofenac was used as a positive control in this study. The samples were analyzed by UPLC-MS/MS to determine the concentration of the test compound and the percent remaining, intrinsic clearance (in vitro CLint) and half-life (T1/2) values were calculated.
(§1) Chromatographic analyses were performed on a Shimadzu UPLC apparatus (Kyoto, Japan) consisting of a gradient pump (model LC-30AD), an automatic injector (model HTC PAL System) and an on-line degasser (model DGU-20A5R). Detection was a triple quadrupole tandem mass spectrometer equipped with a turbo ion spray interface (API 4000/Triple Quad 4500/Triple Quad 5500/Triple Quad 6500). Data acquisition and integration were carried out with LC-MS software (Analyst 1.6) linked directly to the LC-MS/MS system. Chromatographic separations were achieved on a XSelect Hss T3 2.5μ (2.1×30 mm) Column. The mobile phase was 0.1% formic acid in water (A) and 0.1% formic acid in acetonitrile (B). The flow rate was 1.0 mL/min and column was maintained at 40° C.
Half-life (T1/2) data is measured in minutes, and in Table B2, the data is grouped into categories of by the following rules: • T1/2 (microsomal): A=100+; B=50 to 100; C=20 to 50; D<20.
In vitro clearance (CLint) data is measured in μL/min/mg prot, and in Table B2, the data is grouped into categories of by the following rules: • CLint (microsomal): A<20; B=20 to 50; C=50 to 100; and D=100+.

[2] = Human Hepatocyte Stability; assay type: in vitro ADME; settings: human hepatocytes 0.5×10^6 cells/mL, 120 min; for half-life at 1 μM: read-out: T1/2 (hepatic); for microsomal CLint at 1 μM: read-out: in vitro CLint (hepatic)
Experimental: The tested compound was incubated in duplicate with incubation media (Williams' Medium E with 1× GlutaMAX) containing human hepatocytes (0.5×10^6 cells/mL). These incubations were carried out at a final test concentration of 1 μM over a total incubation period of 120 minutes. Samples were taken at 0, 15, 30, 60, 90 and 120 min and the reaction was terminated by addition of acetonitrile containing internal standard (100 nM alprazolam, 200 nM labetalol, 200 nM caffeine and 200 nM diclofenac). Verapamil was used as the positive control in this study. The samples were analyzed by UPLC-MS/MS to determine the concentration of the tested compound and the percentage remaining, intrinsic clearance (in vitro CLint) and half-life (t½) values were calculated.
as §1
Half-life (T1/2) data is measured in minutes, and in Table B2, the data is grouped into categories of by the following rules: • T1/2 (hepatic): A=200+; B=100 to 200; C=50 to 100; and D<50.
In vitro clearance (CLint) data is measured in μL/min/mg prot, and in Table B3, the data is grouped into categories of by the following rules: • CLint (microsomal): A<5; B=5 to 10; C=10 to 20; and D=20+.

IC50 (EP2 receptor) | half-life at 2 μM [1] | microsomal CLint at 2 μM [1] | half-life at 1 μM [2] | microsomal CLint at 1 μM [2] | Structure (SMILES)
100 to 500 nM | < 0.333 h | 50 to 100 µL/min/mg | – | – | COc1ncc(CN2CCOc3c(Cl)cc(-n4ccc5cc(F)ccc54)cc3C2)cn1 [Compound 13]
500 to 1000 nM | 0.333 to 0.833 h | 20 to 50 µL/min/mg | – | – | Nc1cnc(CN2CCOc3c(Cl)cc(-n4ccc5cc(F)ccc54)cc3C2)cn1 [Compound 170]
100 to 500 nM | – | – | > 3.33 h | < 5 µL/min/mg | O=C(O)c1cc(CN2CCOc3c(Cl)cc(-n4ccc5cc(F)ccc54)cc3C2)ccn1 [Compound 185, 4-{[9-chloro-7-(5-fluoroindol-1-yl)-3,5-dihydro-2H-1,4-benzoxazepin-4-yl]methyl}pyridine-2-carboxylic acid]
100 to 500 nM | < 0.333 h | 50 to 100 µL/min/mg | – | – | O=c1cc(CN2CCOc3c(Cl)cc(-n4ccc5cc(F)ccc54)cc3C2)cco1 [Compound 203, 4-{[9-chloro-7-(5-fluoroindol-1-yl)-3,5-dihydro-2H-1,4-benzoxazepin-4-yl]methyl}pyran-2-one]
100 to 500 nM | – | – | > 3.33 h | 5 to 10 µL/min/mg | COCc1ncc(CN2CCOc3c(Cl)cc(-n4ccc5cc(F)ccc54)cc3C2)cn1 [Compound 142]
500 to 1000 nM | < 0.333 h | > 100 µL/min/mg | – | – | Cc1c(CN2CCOc3c(Cl)cc(-n4ccc5cc(F)ccc54)cc3C2)cnn1C [Compound 106, 9-chloro-4-((1,5-dimethyl-1H-pyrazol-4-yl)methyl)-7-(5-fluoro-1H-indol-1-yl)-2,3,4,5-tetrahydrobenzo[f][1,4]oxazepane]
< 100 nM | < 0.333 h | > 100 µL/min/mg | 0.833 to 1.67 h | > 20 µL/min/mg | C[C@@H]1COc2c(Cl)cc(-n3ccc4cc(F)ccc43)cc2CN1Cc1cnc(N)nc1 [Compound 11, 5-{[9-chloro-7-(5-fluoroindol-1-yl)-3-methyl-3,5-dihydro-2H-1,4-benzoxazepin-4-yl]methyl}pyrimidin-2-amine]
100 to 500 nM | < 0.333 h | > 100 µL/min/mg | < 0.833 h | > 20 µL/min/mg | Fc1ccc2c(ccn2-c2cc(Cl)c3c(c2)CN(Cc2ccnc(C4COC4)c2)CCO3)c1 [Compound 187, 9-chloro-7-(5-fluoroindol-1-yl)-4-{[2-(oxetan-3-yl)pyridin-4-yl]methyl}-3,5-dihydro-2H-1,4-benzoxazepine]
< 100 nM | > 1.67 h | < 20 µL/min/mg | > 3.33 h | 5 to 10 µL/min/mg | O=c1ncc(CN2CCOc3c(Cl)cc(-n4ccc5cc(F)ccc54)cc3C2)c[nH]1 [Compound 58]
– | 0.333 to 0.833 h | 20 to 50 µL/min/mg | 1.67 to 3.33 h | 5 to 10 µL/min/mg | O=c1cc(CN2CCOc3c(Cl)cc(-n4ccc5cc(F)ccc54)cc3C2)cc[nH]1 [Ref, 4-((9-chloro-7-(5-fluoro-1H-indol-1-yl)-2,3-dihydrobenzo[f][1,4]oxazepin-4(5H)-yl)methyl)pyridin-2(1H)-one, reference compound]
< 100 nM | – | – | > 3.33 h | < 5 µL/min/mg | O=C(O)c1ncc(CN2CCOc3c(Cl)cc(-n4ccc5cc(F)ccc54)cc3C2)cn1 [Compound 144, 5-{[9-chloro-7-(5-fluoroindol-1-yl)-3,5-dihydro-2H-1,4-benzoxazepin-4-yl]methyl}pyrimidine-2-carboxylic acid]
100 to 500 nM | – | – | 0.833 to 1.67 h | > 20 µL/min/mg | Fc1ccc2c(ccn2-c2cc(Cl)c3c(c2)CN(Cc2cc[nH]c(=S)c2)CCO3)c1 [Compound 189, 4-{[9-chloro-7-(5-fluoroindol-1-yl)-3,5-dihydro-2H-1,4-benzoxazepin-4-yl]methyl}-1H-pyridine-2-thione]
< 100 nM | – | – | 1.67 to 3.33 h | 5 to 10 µL/min/mg | O=c1cc(CN2CCOc3c(Cl)cc(-n4ccc5cc(F)ccc54)cc3C2)cn[nH]1 [Compound 169, 5-{[9-chloro-7-(5-fluoroindol-1-yl)-3,5-dihydro-2H-1,4-benzoxazepin-4-yl]methyl}-2H-pyridazin-3-one]
500 to 1000 nM | 0.833 to 1.67 h | 20 to 50 µL/min/mg | – | – | O=C1NC=C(CN2CCOc3c(Cl)cc(-n4ccc5cc(F)ccc54)cc3C2)CN1 [Compound 202]
100 to 500 nM | – | – | 1.67 to 3.33 h | 10 to 20 µL/min/mg | COc1ncc(CN2CCOc3c(Cl)cc(-n4ccc5c(F)c(F)ccc54)cc3C2)cn1 [Compound 25]
< 100 nM | – | – | 0.833 to 1.67 h | 10 to 20 µL/min/mg | O=c1[nH]ccc(CN2CCOc3c(Cl)cc(-n4ccc5cc(F)ccc54)cc3C2)c1F [Compound 193]
1000 to 5000 nM | 0.333 to 0.833 h | 20 to 50 µL/min/mg | – | – | O=C1CC(CN2CCOc3c(Cl)cc(-n4ccc5cc(F)ccc54)cc3C2)CCN1 (stereo not drawn) [Compound 200, 4-{[9-chloro-7-(5-fluoroindol-1-yl)-3,5-dihydro-2H-1,4-benzoxazepin-4-yl]methyl}piperidin-2-one]
1000 to 5000 nM | 0.333 to 0.833 h | 50 to 100 µL/min/mg | – | – | O=C1CC(CN2CCOc3c(Cl)cc(-n4ccc5cc(F)ccc54)cc3C2)=NN1 [Compound 198, 5-{[9-chloro-7-(5-fluoroindol-1-yl)-3,5-dihydro-2H-1,4-benzoxazepin-4-yl]methyl}-2,4-dihydropyrazol-3-one]
< 100 nM | – | – | 1.67 to 3.33 h | 10 to 20 µL/min/mg | Cc1c(CN2CCOc3c(Cl)cc(-n4ccc5cc(F)ccc54)cc3C2)cc[nH]c1=O [Compound 194, 4-{[9-chloro-7-(5-fluoroindol-1-yl)-3,5-dihydro-2H-1,4-benzoxazepin-4-yl]methyl}-3-methyl-1H-pyridin-2-one]
< 100 nM | – | – | 1.67 to 3.33 h | 5 to 10 µL/min/mg | Cc1[nH]c(=O)ncc1CN1CCOc2c(Cl)cc(-n3ccc4cc(F)ccc43)cc2C1 [Compound 156]
500 to 1000 nM | – | – | – | – | COc1ncc(CN2CCOc3c(Cl)cc(N4CCc5cc(F)ccc54)cc3C2)cn1 [Compound 45, 9-chloro-7-(5-fluoro-2,3-dihydroindol-1-yl)-4-[(2-methoxypyrimidin-5-yl)methyl]-3,5-dihydro-2H-1,4-benzoxazepine]
1000 to 5000 nM | – | – | – | – | Fc1ccc2c(ccn2-c2cc(Cl)c3c(c2)CN(Cc2ccnc(Cl)c2F)CCO3)c1 [Compound 190]
100 to 500 nM | – | – | – | – | [2H]C1([2H])c2cc(-n3ccc4cc(F)ccc43)cc(Cl)c2OC([2H])([2H])C([2H])([2H])N1Cc1cc[nH]c(=O)c1 [Compound 225]
> 5000 nM | – | – | – | – | COc1ncc(CN2CCOc3c(Cl)cc(-n4ccc5cncnc54)cc3C2)cn1 [Compound 42]
100 to 500 nM | – | – | – | – | O=c1ncc(CN2CCOc3c(Cl)cc(-n4ccc5cc(Cl)ccc54)cc3C2)c[nH]1 [Compound 62]
500 to 1000 nM | – | – | – | – | COc1nccc(CN2CCOc3c(Cl)cc(-n4ccc5cc(F)ccc54)cc3C2)n1 [Compound 161]
500 to 1000 nM | – | – | – | – | Fc1ccc2c(ccn2-c2cc(Cl)c3c(c2)CN(Cc2cnco2)CCO3)c1 [Compound 93, 9-chloro-7-(5-fluoro-1H-indol-1-yl)-4-(oxazol-5-ylmethyl)-2,3,4,5-tetrahydrobenzo[f][1,4]oxazepine]
100 to 500 nM | – | – | – | – | COC(=O)c1cc(CN2CCOc3c(Cl)cc(-n4ccc5cc(F)ccc54)cc3C2)ccn1 [Compound 186]
